Reference: ChEMBL document CHEMBL3046001, “4-Thiazolidinone and 1-thia-3,4,9-triaza fluorene conjugates: synthesis, characterization and antimicrobial screening” (2013)
Values after ≈ are worked out from the molar mass of the structure shown. Active and inactive are the calls of the source. No cut-off for these calls is given here.

Assays:
Type in all cases: functional
Escherichia coli [1] = assay: Antibacterial activity against Escherichia coli MTCC 1573 assessed as growth inhibition at 500 ug/mL after 48 hr by agar diffusion method; conditions: MTCC 1573, 48 h, read-out: DIZ
Pseudomonas aeruginosa [2] = assay: Antibacterial activity against Pseudomonas aeruginosa MTCC 424 assessed as growth inhibition at 100 ug/mL after 48 hr by agar diffusion method; conditions: MTCC 424, 48 h, read-out: DIZ
Aspergillus niger [3] = assay: Antifungal activity against Aspergillus niger MTCC 2546 assessed as growth inhibition at 750 ug/mL after 48 hr by agar diffusion method; conditions: MTCC 2546, 48 h, read-out: DIZ
Bacillus subtilis [4] = assay: Antibacterial activity against Bacillus subtilis MTCC 441 assessed as growth inhibition at 1000 ug/mL after 48 hr by agar diffusion method; conditions: MTCC 441, 48 h, read-out: DIZ
Pseudomonas aeruginosa [5] = assay: Antibacterial activity against Pseudomonas aeruginosa MTCC 424 assessed as growth inhibition at 1000 ug/mL after 48 hr by agar diffusion method; conditions: MTCC 424, 48 h, read-out: DIZ
Bacillus pumilus [6] = assay: Antibacterial activity against Bacillus pumilus MTCC 1456 assessed as growth inhibition at 1000 ug/mL after 48 hr by agar diffusion method; conditions: MTCC 1456, 48 h, read-out: DIZ
Bacillus pumilus [7] = assay: Antibacterial activity against Bacillus pumilus MTCC 1456 assessed as growth inhibition at 1250 ug/mL after 48 hr by agar diffusion method; conditions: MTCC 1456, 48 h, read-out: DIZ
Pseudomonas fluorescens [8] = assay: Antibacterial activity against Pseudomonas fluorescens MTCC 2421 assessed as growth inhibition at 500 ug/mL after 48 hr by agar diffusion method; conditions: MTCC 2421, 48 h, read-out: DIZ
Staphylococcus aureus [9] = assay: Antibacterial activity against Staphylococcus aureus MTCC 1430 assessed as growth inhibition at 750 ug/mL after 48 hr by agar diffusion method; conditions: MTCC 1430, 48 h, read-out: DIZ
Bacillus subtilis [10] = assay: Antibacterial activity against Bacillus subtilis MTCC 441 assessed as growth inhibition after 24 hr by tube dilution method; conditions: MTCC 441, 24 h
Micrococcus luteus [11] = assay: Antibacterial activity against Micrococcus luteus MTCC 1538 assessed as growth inhibition at 1000 ug/mL after 48 hr by agar diffusion method; conditions: MTCC 1538, 48 h, read-out: DIZ
Bacillus subtilis [12] = assay: Antibacterial activity against Bacillus subtilis MTCC 441 assessed as growth inhibition at 100 ug/mL after 48 hr by agar diffusion method; conditions: MTCC 441, 48 h, read-out: DIZ
Escherichia coli [13] = assay: Antibacterial activity against Escherichia coli MTCC 1573 assessed as growth inhibition at 100 ug/mL after 48 hr by agar diffusion method; conditions: MTCC 1573, 48 h, read-out: DIZ
Staphylococcus aureus [14] = assay: Antibacterial activity against Staphylococcus aureus MTCC 1430 assessed as growth inhibition at 1250 ug/mL after 48 hr by agar diffusion method; conditions: MTCC 1430, 48 h, read-out: DIZ
Micrococcus luteus [15] = assay: Antibacterial activity against Micrococcus luteus MTCC 1538 assessed as growth inhibition at 1250 ug/mL after 48 hr by agar diffusion method; conditions: MTCC 1538, 48 h, read-out: DIZ
Penicillium chrysogenum [16] = assay: Antifungal activity against Penicillium chrysogenum MTCC 161 assessed as growth inhibition at 500 ug/mL after 48 hr by agar diffusion method; conditions: MTCC 161, 48 h, read-out: DIZ
Penicillium chrysogenum [17] = assay: Antifungal activity against Penicillium chrysogenum MTCC 161 assessed as growth inhibition at 750 ug/mL after 48 hr by agar diffusion method; conditions: MTCC 161, 48 h, read-out: DIZ
Micrococcus luteus [18] = assay: Antibacterial activity against Micrococcus luteus MTCC 1538 assessed as growth inhibition at 250 ug/mL after 48 hr by agar diffusion method; conditions: MTCC 1538, 48 h, read-out: DIZ
Pseudomonas fluorescens [19] = assay: Antibacterial activity against Pseudomonas fluorescens MTCC 2421 assessed as growth inhibition after 24 hr by tube dilution method; conditions: MTCC 2421, 24 h
Pseudomonas aeruginosa [20] = assay: Antibacterial activity against Pseudomonas aeruginosa MTCC 424 assessed as growth inhibition at 250 ug/mL after 48 hr by agar diffusion method; conditions: MTCC 424, 48 h, read-out: DIZ
Staphylococcus aureus [21] = assay: Antibacterial activity against Staphylococcus aureus MTCC 1430 assessed as growth inhibition at 1000 ug/mL after 48 hr by agar diffusion method; conditions: MTCC 1430, 48 h, read-out: DIZ
Pseudomonas fluorescens [22] = assay: Antibacterial activity against Pseudomonas fluorescens MTCC 2421 assessed as growth inhibition at 100 ug/mL after 48 hr by agar diffusion method; conditions: MTCC 2421, 48 h, read-out: DIZ
Escherichia coli [23] = assay: Antibacterial activity against Escherichia coli MTCC 1573 assessed as growth inhibition at 1250 ug/mL after 48 hr by agar diffusion method; conditions: MTCC 1573, 48 h, read-out: DIZ
Bacillus subtilis [24] = assay: Antibacterial activity against Bacillus subtilis MTCC 441 assessed as growth inhibition at 1250 ug/mL after 48 hr by agar diffusion method; conditions: MTCC 441, 48 h, read-out: DIZ
Pseudomonas aeruginosa [25] = assay: Antibacterial activity against Pseudomonas aeruginosa MTCC 424 assessed as growth inhibition at 500 ug/mL after 48 hr by agar diffusion method; conditions: MTCC 424, 48 h, read-out: DIZ
Micrococcus luteus [26] = assay: Antibacterial activity against Micrococcus luteus MTCC 1538 assessed as growth inhibition at 750 ug/mL after 48 hr by agar diffusion method; conditions: MTCC 1538, 48 h, read-out: DIZ
Aspergillus niger [27] = assay: Antifungal activity against Aspergillus niger MTCC 2546 assessed as growth inhibition at 1250 ug/mL after 48 hr by agar diffusion method; conditions: MTCC 2546, 48 h, read-out: DIZ
Bacillus subtilis [28] = assay: Antibacterial activity against Bacillus subtilis MTCC 441 assessed as growth inhibition at 750 ug/mL after 48 hr by agar diffusion method; conditions: MTCC 441, 48 h, read-out: DIZ
Escherichia coli [29] = assay: Antibacterial activity against Escherichia coli MTCC 1573 assessed as growth inhibition after 24 hr by tube dilution method; conditions: MTCC 1573, 24 h
Bacillus subtilis [30] = assay: Antibacterial activity against Bacillus subtilis MTCC 441 assessed as growth inhibition at 500 ug/mL after 48 hr by agar diffusion method; conditions: MTCC 441, 48 h, read-out: DIZ
Penicillium chrysogenum [31] = assay: Antifungal activity against Penicillium chrysogenum MTCC 161 assessed as growth inhibition at 1000 ug/mL after 48 hr by agar diffusion method; conditions: MTCC 161, 48 h, read-out: DIZ
Bacillus pumilus [32] = assay: Antibacterial activity against Bacillus pumilus MTCC 1456 assessed as growth inhibition after 24 hr by tube dilution method; conditions: MTCC 1456, 24 h
Micrococcus luteus [33] = assay: Antibacterial activity against Micrococcus luteus MTCC 1538 assessed as growth inhibition after 24 hr by tube dilution method; conditions: MTCC 1538, 24 h
Escherichia coli [34] = assay: Antibacterial activity against Escherichia coli MTCC 1573 assessed as growth inhibition at 250 ug/mL after 48 hr by agar diffusion method; conditions: MTCC 1573, 48 h, read-out: DIZ
Pseudomonas aeruginosa [35] = assay: Antibacterial activity against Pseudomonas aeruginosa MTCC 424 assessed as growth inhibition after 24 hr by tube dilution method; conditions: MTCC 424, 24 h
Escherichia coli [36] = assay: Antibacterial activity against Escherichia coli MTCC 1573 assessed as growth inhibition at 750 ug/mL after 48 hr by agar diffusion method; conditions: MTCC 1573, 48 h, read-out: DIZ
Staphylococcus aureus [37] = assay: Antibacterial activity against Staphylococcus aureus MTCC 1430 assessed as growth inhibition at 500 ug/mL after 48 hr by agar diffusion method; conditions: MTCC 1430, 48 h, read-out: DIZ
Bacillus pumilus [38] = assay: Antibacterial activity against Bacillus pumilus MTCC 1456 assessed as growth inhibition at 100 ug/mL after 48 hr by agar diffusion method; conditions: MTCC 1456, 48 h, read-out: DIZ
Staphylococcus aureus [39] = assay: Antibacterial activity against Staphylococcus aureus MTCC 1430 assessed as growth inhibition at 250 ug/mL after 48 hr by agar diffusion method

MIC (Bacillus subtilis [10]): 30 µg/mL (≈ 99.2 µM)
MIC (Pseudomonas fluorescens [19]): 30 µg/mL (≈ 99.2 µM)
MIC (Escherichia coli [29]): 40 µg/mL (≈ 132 µM)
MIC (Bacillus pumilus [32]): 30 µg/mL (≈ 99.2 µM)
MIC (Micrococcus luteus [33]): 40 µg/mL (≈ 132 µM)
MIC (Pseudomonas aeruginosa [35]): 30 µg/mL (≈ 99.2 µM)
SMILES: CC1SCC(=O)N1c1nnc2c3ccccc3nc-2s1 (centres undefined)
zone of inhibition at 500 µg/mL (Escherichia coli [1]): 13 mm
zone of inhibition at 100 µg/mL (Pseudomonas aeruginosa [2]): 8 mm
zone of inhibition at 750 µg/mL (Aspergillus niger [3]): 11 mm
zone of inhibition at 1000 µg/mL (Bacillus subtilis [4]): 20 mm
zone of inhibition at 1000 µg/mL (Pseudomonas aeruginosa [5]): 20 mm
zone of inhibition at 1000 µg/mL (Bacillus pumilus [6]): 22 mm
zone of inhibition at 1250 µg/mL (Bacillus pumilus [7]): 25 mm
zone of inhibition at 500 µg/mL (Pseudomonas fluorescens [8]): 13 mm
zone of inhibition at 750 µg/mL (Staphylococcus aureus [9]): 11 mm
zone of inhibition at 1000 µg/mL (Micrococcus luteus [11]): 17 mm
zone of inhibition at 100 µg/mL (Bacillus subtilis [12]): 10 mm
zone of inhibition at 100 µg/mL (Escherichia coli [13]): 7 mm
zone of inhibition at 1250 µg/mL (Staphylococcus aureus [14]): 17 mm
zone of inhibition at 1250 µg/mL (Micrococcus luteus [15]): 19 mm
zone of inhibition at 500 µg/mL (Penicillium chrysogenum [16]): 10 mm
zone of inhibition at 750 µg/mL (Penicillium chrysogenum [17]): 12 mm
zone of inhibition at 250 µg/mL (Micrococcus luteus [18]): 10 mm
zone of inhibition at 250 µg/mL (Pseudomonas aeruginosa [20]): 11 mm
zone of inhibition at 1000 µg/mL (Staphylococcus aureus [21]): 15 mm
zone of inhibition at 100 µg/mL (Pseudomonas fluorescens [22]): 8 mm
zone of inhibition at 1250 µg/mL (Escherichia coli [23]): 20 mm
zone of inhibition at 1250 µg/mL (Bacillus subtilis [24]): 22 mm
zone of inhibition at 500 µg/mL (Pseudomonas aeruginosa [25]): 12 mm
zone of inhibition at 750 µg/mL (Micrococcus luteus [26]): 14 mm
zone of inhibition at 1250 µg/mL (Aspergillus niger [27]): 17 mm
zone of inhibition at 750 µg/mL (Bacillus subtilis [28]): 18 mm
zone of inhibition at 500 µg/mL (Bacillus subtilis [30]): 15 mm
zone of inhibition at 1000 µg/mL (Penicillium chrysogenum [31]): 15 mm
zone of inhibition at 250 µg/mL (Escherichia coli [34]): 10 mm
zone of inhibition at 750 µg/mL (Escherichia coli [36]): 15 mm
zone of inhibition at 500 µg/mL (Staphylococcus aureus [37]): 8 mm
zone of inhibition at 100 µg/mL (Bacillus pumilus [38]): 7 mm
growth inhibition (GI) (Staphylococcus aureus [39]): inactive
